# Source: publication PMC3064523 (Clinical cancer research : an official journal of the …, 2010)
# Where “and” joins values, the source holds several entries; their conditions need not be identical. Equal values may be shown once. Entries after “also recorded” stand apart in the source; their conditions may differ. Read-outs that look alike come from different tables or passages of the source.
# Columns and labels:
# [1] = system: PBMC histone acetylation (AcH3 and AcH4); details: 4 hours after a dose of VPA; cited from earlier work
# [2] = system: children with refractory solid or CNS tumors; experiment: Phase 1 trial: dose-limiting and non-dose-limiting toxicities of oral VPA; assay type: in vivo, human; details: for Description of DLTs: cycle 1
# [3] = system: Histone H3 acetylation in PBMCs; experiment: PBMC histone H3 acetylation, sandwich ELISA; assay type: in vivo, human; details: for Post-VPA/Pre-VPA AcH3: steady state trough
# human cancers = details: pre-clinical studies; cited from earlier work
# [4] = system: Histone H4 acetylation in PBMCs; experiment: PBMC histone H4 acetylation, sandwich ELISA; assay type: in vivo, human; details: steady state trough
# [5] = assay type: in vivo, human; details: for Total VPA / Free VPA: at PBMC sampling; for CL/F: CL/F (apparent total body clearance) Median +/− SD; for half-life: t1/2 Median +/− SD
# [6] = system: children with newly diagnosed high-grade or brainstem gliomas; experiment: Ongoing phase II trial of VPA and radiation; assay type: in vivo, human; details: seven children; VPA trough concentrations of 85–115 mcg/ml
# histone acetylation = details: at the time of maximal drug concentration; cited from earlier work
# [7] = Cycle 1 (16 total cycle), 16 evaluable patients
# [8] = Cycle 2 to 7 (15 total cycles), 16 evaluable patients
# [9] = human, plasma, po, Steady State, Free VPA (n = 4), oral
# [10] = human, plasma, po, Steady State, Total VPA (n = 4), oral
smiles,measurement,setting,value
"CCCC(CCC)C(=O)O [VPA, Valproic acid]",Increases in AcH3 and AcH4 in PBMC,[1],observed in all patients
same,Description of DLTs,"[2]; Cohort 0 (trough VPA level 75–100 mcg/ml), TID dosing",None
same,Description of DLTs,"[2]; Cohort 1 (trough VPA level 100–150 mcg/ml), BID dosing",grade 3 somnolence; also recorded: Somnolence (1)
same,Description of DLTs,"[2]; Cohort 1 (trough VPA level 100–150 mcg/ml), TID dosing",grade-3 somnolence and grade-5 hemorrhage/hemothorax; also recorded: Somnolence (1) Pulmonary hemorrhage (1) Dyspnea (1) Hypoxia (1) Hypotension (1) Hypocalcemia (1)
same,"Anemia, non-dose limiting, maximum Grade 1",[2]; [7],3
same,"Anemia, non-dose limiting, maximum Grade 2",[2]; [7],2
same,"Anemia, non-dose limiting, maximum Grade 4",[2]; [7],1
same,"Dizziness, non-dose limiting, maximum Grade 1",[2]; [7],4
same,"Fatigue, non-dose limiting, maximum Grade 1",[2]; [7],3
same,"Fatigue, non-dose limiting, maximum Grade 2",[2]; [7],2
same,"Headache, non-dose limiting, maximum Grade 1",[2]; [7],1
same,"Headache, non-dose limiting, maximum Grade 2",[2]; [7],1
same,"Hypoalbuminemia, non-dose limiting, maximum Grade 1",[2]; [7],1
same,"Hypoalbuminemia, non-dose limiting, maximum Grade 2",[2]; [7],2
same,"Leukopenia, non-dose limiting, maximum Grade 1",[2]; [7],5
same,"Leukopenia, non-dose limiting, maximum Grade 2",[2]; [7],1
same,"Lymphopenia, non-dose limiting, maximum Grade 1",[2]; [7],4
same,"Lymphopenia, non-dose limiting, maximum Grade 2",[2]; [7],1
same,"Lymphopenia, non-dose limiting, maximum Grade 4",[2]; [7],1
same,"Nausea, non-dose limiting, maximum Grade 1",[2]; [7],1
same,"Nausea, non-dose limiting, maximum Grade 3",[2]; [7],1
same,"Neutropenia, non-dose limiting, maximum Grade 1",[2]; [7],1
same,"Somnolence, non-dose limiting, maximum Grade 2",[2]; [7],1
same,"Thrombocytopenia, non-dose limiting, maximum Grade 1",[2]; [7],6
same,"Thrombocytopenia, non-dose limiting, maximum Grade 2",[2]; [7],2
same,"Vomiting, non-dose limiting, maximum Grade 2",[2]; [7],2
same,"Anemia, non-dose limiting, maximum Grade 1",[2]; [8],2
same,"Anemia, non-dose limiting, maximum Grade 2",[2]; [8],1
same,"Dizziness, non-dose limiting, maximum Grade 1",[2]; [8],1
same,"Fatigue, non-dose limiting, maximum Grade 2",[2]; [8],1
same,"Headache, non-dose limiting, maximum Grade 2",[2]; [8],1
same,"Leukopenia, non-dose limiting, maximum Grade 2",[2]; [8],1
same,"Leukopenia, non-dose limiting, maximum Grade 3",[2]; [8],1
same,"Lymphopenia, non-dose limiting, maximum Grade 1",[2]; [8],2
same,"Lymphopenia, non-dose limiting, maximum Grade 3",[2]; [8],1
same,"Neutropenia, non-dose limiting, maximum Grade 2",[2]; [8],1
same,"Neutropenia, non-dose limiting, maximum Grade 3",[2]; [8],1
same,"Neutropenia, non-dose limiting, maximum Grade 4",[2]; [8],1
same,"Thrombocytopenia, non-dose limiting, maximum Grade 1",[2]; [8],2
same,"Thrombocytopenia, non-dose limiting, maximum Grade 4",[2]; [8],1
same,Patients with reduced post-treatment AcH3 and AcH4 levels in PBMCs,[3]; 10 patients studied,Five
same,Patients with increased AcH3 and AcH4 levels in PBMCs,"[3]; 10 patients studied, at trough VPA exposure",Five and 5 out of 10
same,Post-VPA/Pre-VPA AcH3,[3]; Patient 712904,0.75
same,Post-VPA/Pre-VPA AcH3,[3]; Patient 714036,0.93
same,Post-VPA/Pre-VPA AcH3,[3]; Patient 734297,1.51
same,Post-VPA/Pre-VPA AcH3,[3]; Patient 747001,0.43
same,Post-VPA/Pre-VPA AcH3,[3]; Patient 757318,1.44
same,Post-VPA/Pre-VPA AcH3,[3]; Patient 769495,1.38
same,Post-VPA/Pre-VPA AcH3,[3]; Patient 770113,0.90
same,Patients with increased PBMC histone acetylation,"[3]; of patients studied, steady state, H3 and H4",50%
same,Threshold VPA concentration associated with anti-tumor activity,human cancers,exceeded 100 mcg/ml
same,Post-VPA/Pre-VPA AcH4,[4]; Patient 712904,0.75
same,Post-VPA/Pre-VPA AcH4,[4]; Patient 714036,0.87
same,Post-VPA/Pre-VPA AcH4,[4]; Patient 734297,1.11
same,Post-VPA/Pre-VPA AcH4,[4]; Patient 747001,0.47
same,Post-VPA/Pre-VPA AcH4,[4]; Patient 757318,1.55
same,Post-VPA/Pre-VPA AcH4,[4]; Patient 769495,2.45
same,Post-VPA/Pre-VPA AcH4,[4]; Patient 770113,0.70
same,Total VPA,[5]; Patient 536584,81.0 µg/mL
same,Total VPA,[5]; Patient 712904,100.9 µg/mL
same,Total VPA,[5]; Patient 714036,109.0 µg/mL
same,Total VPA,[5]; Patient 734297,78.2 µg/mL
same,Free VPA,[5]; Patient 747001,19.1 µg/mL
same,Total VPA,[5]; Patient 747001,90.9 µg/mL
same,Total VPA,[5]; Patient 752294,134.1 µg/mL
same,Free VPA,[5]; Patient 757318,36.6 µg/mL
same,Total VPA,[5]; Patient 757318,90.1 µg/mL
same,Free VPA,[5]; Patient 769495,8.1 µg/mL
same,Total VPA,[5]; Patient 769495,77.0 µg/mL
same,Free VPA,[5]; Patient 770059,11 µg/mL
same,Total VPA,[5]; Patient 770059,105.7 µg/mL
same,Free VPA,[5]; Patient 770113,8 µg/mL
same,Total VPA,[5]; Patient 770113,55.7 µg/mL
same,Mean steady state VPA dose,"[5]; VPA concentration 75–100 mcg/ml, syrup and capsules (n = 2)",12.5 ± 3.5 mg/kg
same,Mean steady state VPA dose,"[5]; VPA concentration 75–100 mcg/ml, syrup only (n = 4)",17.5 ± 2.9 mg/kg
same,Mean steady state VPA dose,"[5]; VPA concentrations 100–150 mcg/ml, syrup and capsules (n = 8)",41.3 ± 20.7 mg/kg
same,Mean steady state VPA dose,"[5]; VPA concentrations 100–150 mcg/ml, syrup only (n = 10)",36.0 ± 27.7 mg/kg
same,concentration at 9 weeks,"[5]; human, plasma, oral",123 µg/mL
same,concentration at 3 days,"[5]; human, plasma, oral, 25 mg/kg/day",172 µg/mL
same,Vd/F,"[5]; human, plasma, po, 25 mg/kg/day",0.12 L/kg
same,CL/F,"[5]; human, plasma, po, 25 mg/kg/day, First dose, Total VPA (n = 4), oral",0.2 mL/min/kg
same,CL/F,[5]; [9],0.87 mL/min/kg
same,CL/F,[5]; [10],0.133 mL/min/kg
same,half-life,[5]; [9],6.5 h
same,half-life,[5]; [10],11.4 h
same,Mean final dose of VPA,"[5]; starting dose 25 mg/kg/day divided b.i.d., trough above 100 mcg/ml",exceeded 50 mg/kg/day
same,Number of dose escalations to achieve targeted concentrations (mean ± SD),[5]; t.i.d. dosing,1.3 ± 0.5
same,Mean final dose of VPA,"[5]; t.i.d., starting dose 15 mg/kg/day",less than 20 mg/kg/day
same,Free VPA concentration as % of total concentration (mean +/− SD),"[5]; total VPA concentration exceeded 125 mcg/ml, 8 measurements",44.9 +/− 15.8%
same,Free VPA concentration as % of total concentration (mean +/− SD),"[5]; total VPA concentrations below 100 mcg/ml, 32 measurements",16.8 +/− 6.9%
same,Free VPA concentration as % of total concentration (mean +/− SD),"[5]; total VPA concentrations between 100–125 mcg/ml, 17 measurements",21.3 +/− 11.5%
same,Fraction of free VPA,[5]; until total VPA concentrations exceeded 125 mcg/ml,less than 0.25
same,Toxicity of radiation and VPA,[6],without encountering neuro-toxicities or other dose-limiting toxicities
C/C=C1\NC(=O)[C@H]2CSSCC/C=C/[C@H](CC(=O)N[C@H](C(C)C)C(=O)N2)OC(=O)[C@H](C(C)C)NC1=O [depsipeptide],Histone hyper-acetylation,histone acetylation,histone hyper-acetylation in all patients
